# Measurements taken from ChEMBL document CHEMBL1201862, “PubChem BioAssay data set” (2004).
#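 Cultured in 96-well plates, cells were exposed to test compound for 48 hours across five concentrations. At the GI50, growth is halved.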 Activity calls are given as the source filed them. Rule as the data show it: active = GI50 up to about 1.1 µM and inactive = higher.
# Experiments:
# Assay in all cases: inhibition of tumour cell growth, NCI panel, 48 h
# 786-0 = test system: 786-0
# A498 = test system: A498
# A549 = test system: A549
# ACHN = test system: ACHN
# COLO 205 = test system: COLO 205
# DMS-114 = test system: DMS-114
# DMS-273 = test system: DMS-273
# EKVX = test system: EKVX
# HCT-116 = test system: HCT-116
# HCT-15 = test system: HCT-15
# HL-60 = test system: HL-60
# HOP-18 = test system: HOP-18
# HOP-92 = test system: HOP-92
# HT-29 = test system: HT-29
# IGROV-1 = test system: IGROV-1
# K562 = test system: K562
# KM-20L2 = test system: KM-20L2
# KM12 = test system: KM12
# LOX IMVI = test system: LOX IMVI
# LXFL 529 = test system: LXFL 529
# M14 = test system: M14
# M19-MEL = test system: M19-MEL
# MOLT-4 = test system: MOLT-4
# Malme-3M = test system: Malme-3M
# NCI-H23 = test system: NCI-H23
# NCI-H460 = test system: NCI-H460
# NCI-H522 = test system: NCI-H522
# OVCAR-3 = test system: OVCAR-3
# OVCAR-4 = test system: OVCAR-4
# OVCAR-5 = test system: OVCAR-5
# OVCAR-8 = test system: OVCAR-8
# RPMI-8226 = test system: RPMI-8226
# RXF 393 = test system: RXF 393
# RXF 631 = test system: RXF 631
# SF-268 = test system: SF-268
# SF-295 = test system: SF-295
# SF-539 = test system: SF-539
# SK-MEL-28 = test system: SK-MEL-28
# SK-MEL-2 = test system: SK-MEL-2
# SK-OV-3 = test system: SK-OV-3
# SN12C = test system: SN12C
# SNB-19 = test system: SNB-19
# SNB-75 = test system: SNB-75
# SNB-78 = test system: SNB-78
# SW-620 = test system: SW-620
# TK-10 = test system: TK-10
# U-251 = test system: U-251
# UACC-257 = test system: UACC-257
# UACC-62 = test system: UACC-62
# UO-31 = test system: UO-31
# XF498 = test system: XF498
# BT-549 = test system: BT-549
# CAKI-1 = test system: CAKI-1
# CCRF-CEM = test system: CCRF-CEM
# DLD-1 = test system: DLD-1
# DU-145 = test system: DU-145
# HCC 2998 = test system: HCC 2998
# HOP-62 = test system: HOP-62
# Hs-578T = test system: Hs-578T
# MCF7 = test system: MCF7
# MDA-MB-231 = test system: MDA-MB-231
# MDA-MB-435 = test system: MDA-MB-435
# MDA-N = test system: MDA-N
# NCI-H226 = test system: NCI-H226
# NCI/ADR-RES = test system: NCI/ADR-RES
# PC-3 = test system: PC-3
# SK-MEL-5 = test system: SK-MEL-5
smiles,measurement,setting,value
O/N=C1/C(=C/c2ccccc2)CCCC1C(NO)c1ccccc1 (configuration not stated),GI50,786-0,> 100 µM (inactive)
same,GI50,A498,> 100 µM (inactive)
same,GI50,A549,40.1 µM (inactive)
same,GI50,ACHN,68.4 µM (inactive)
same,GI50,COLO 205,> 100 µM (inactive)
same,GI50,DMS-114,30.7 µM (inactive)
same,GI50,DMS-273,> 100 µM (inactive)
same,GI50,EKVX,61.9 µM (inactive)
same,GI50,HCT-116,48.1 µM (inactive)
same,GI50,HCT-15,> 100 µM
same,GI50,HL-60,2.29 µM (inactive)
same,GI50,HOP-18,> 100 µM (inactive)
same,GI50,HOP-92,33.3 µM (inactive)
same,GI50,HT-29,> 100 µM (inactive)
same,GI50,IGROV-1,> 100 µM (inactive)
same,GI50,K562,3.31 µM (inactive)
same,GI50,KM-20L2,> 100 µM (inactive)
same,GI50,KM12,85.3 µM (inactive)
same,GI50,LOX IMVI,> 100 µM (inactive)
same,GI50,LXFL 529,49.1 µM (inactive)
same,GI50,M14,84.9 µM (inactive)
same,GI50,M19-MEL,68.4 µM (inactive)
same,GI50,MOLT-4,26.4 µM (inactive)
same,GI50,Malme-3M,44.2 µM (inactive)
same,GI50,NCI-H23,59.2 µM (inactive)
same,GI50,NCI-H460,79.6 µM (inactive)
same,GI50,NCI-H522,45.7 µM (inactive)
same,GI50,OVCAR-3,> 100 µM (inactive)
same,GI50,OVCAR-4,31.3 µM (inactive)
same,GI50,OVCAR-5,> 100 µM (inactive)
same,GI50,OVCAR-8,64 µM (inactive)
same,GI50,RPMI-8226,35.5 µM (inactive)
same,GI50,RXF 393,34.8 µM (inactive)
same,GI50,RXF 631,> 100 µM (inactive)
same,GI50,SF-268,55.7 µM (inactive)
same,GI50,SF-295,78.3 µM (inactive)
same,GI50,SF-539,> 100 µM (inactive)
same,GI50,SK-MEL-28,> 100 µM (inactive)
same,GI50,SK-MEL-2,> 100 µM (inactive)
same,GI50,SK-OV-3,> 100 µM (inactive)
same,GI50,SN12C,69.8 µM (inactive)
same,GI50,SNB-19,91.4 µM (inactive)
same,GI50,SNB-75,> 100 µM (inactive)
same,GI50,SNB-78,50.6 µM (inactive)
same,GI50,SW-620,> 100 µM (inactive)
same,GI50,TK-10,> 100 µM (inactive)
same,GI50,U-251,> 10 µM (inactive)
same,GI50,UACC-257,38.5 µM (inactive)
same,GI50,UACC-62,70.3 µM (inactive)
same,GI50,UO-31,57.1 µM (inactive)
same,GI50,XF498,28.1 µM (inactive)
Brc1ccccc2cc(-c3ccccc3)nc1-2,GI50,786-0,1.92 µM (inactive)
same,GI50,A498,14 µM (inactive)
same,GI50,A549,14.7 µM (inactive)
same,GI50,ACHN,3.37 µM (inactive)
same,GI50,BT-549,19.3 µM (inactive)
same,GI50,CAKI-1,5.05 µM (inactive)
same,GI50,CCRF-CEM,2.47 µM (inactive)
same,GI50,COLO 205,2.14 µM (inactive)
same,GI50,DLD-1,1.94 µM (inactive)
same,GI50,DMS-114,2.16 µM (inactive)
same,GI50,DMS-273,4.35 µM (inactive)
same,GI50,DU-145,11.9 µM (inactive)
same,GI50,EKVX,11.5 µM (inactive)
same,GI50,HCC 2998,1.93 µM (inactive)
same,GI50,HCT-116,1.85 µM (inactive)
same,GI50,HCT-15,2.24 µM
same,GI50,HL-60,1.27 µM (inactive)
same,GI50,HOP-18,3.78 µM (inactive)
same,GI50,HOP-62,9.93 µM (inactive)
same,GI50,HOP-92,3.32 µM (inactive)
same,GI50,HT-29,4.5 µM (inactive)
same,GI50,Hs-578T,6.87 µM (inactive)
same,GI50,IGROV-1,9.12 µM (inactive)
same,GI50,K562,2.7 µM (inactive)
same,GI50,KM-20L2,1.71 µM (inactive)
same,GI50,KM12,5.97 µM (inactive)
same,GI50,LOX IMVI,2.23 µM (inactive)
same,GI50,LXFL 529,1.73 µM (inactive)
same,GI50,M14,3 µM (inactive)
same,GI50,MCF7,8.79 µM (inactive)
same,GI50,MDA-MB-231,2.6 µM (inactive)
same,GI50,MDA-MB-435,9.95 µM (inactive)
same,GI50,MDA-N,14.7 µM (inactive)
same,GI50,MOLT-4,1.53 µM (inactive)
same,GI50,Malme-3M,3.01 µM (inactive)
same,GI50,NCI-H226,5.05 µM (inactive)
same,GI50,NCI-H23,3.26 µM (inactive)
same,GI50,NCI-H460,11.9 µM (inactive)
same,GI50,NCI-H522,2.86 µM (inactive)
same,GI50,NCI/ADR-RES,3.58 µM (inactive)
same,GI50,OVCAR-3,2.16 µM (inactive)
same,GI50,OVCAR-4,2.9 µM (inactive)
same,GI50,OVCAR-5,7.43 µM (inactive)
same,GI50,OVCAR-8,2.27 µM (inactive)
same,GI50,PC-3,13.5 µM (inactive)
same,GI50,RPMI-8226,2.44 µM (inactive)
same,GI50,RXF 393,2.09 µM (inactive)
same,GI50,RXF 631,11.9 µM (inactive)
same,GI50,SF-268,4.85 µM (inactive)
same,GI50,SF-295,15.6 µM (inactive)
same,GI50,SF-539,4.8 µM (inactive)
same,GI50,SK-MEL-28,3.94 µM (inactive)
same,GI50,SK-MEL-2,4.61 µM (inactive)
same,GI50,SK-MEL-5,6.55 µM (inactive)
same,GI50,SK-OV-3,8.69 µM (inactive)
same,GI50,SN12C,1.87 µM (inactive)
same,GI50,SNB-19,13.6 µM (inactive)
same,GI50,SNB-75,11.6 µM (inactive)
same,GI50,SNB-78,2.85 µM (inactive)
same,GI50,SW-620,2.07 µM (inactive)
same,GI50,TK-10,7.57 µM (inactive)
same,GI50,U-251,7.87 µM (inactive)
same,GI50,UACC-257,5.06 µM (inactive)
same,GI50,UACC-62,2.53 µM (inactive)
same,GI50,UO-31,5.37 µM (inactive)
same,GI50,XF498,1.98 µM (inactive)
